Experimental data taken from US20140066389A1, “METHOD AND PHARMACEUTICAL TO TREAT SPINAL DISCS” (priority 2000, published 2014).

Tested on: spinal disc
Assay: Disc injections containing only one constituent
Assay type: in vivo
Settings: injections with only one of glucosamine and chondroitin sulfate
Text: Common to all formulations according to this invention is the inclusion, in an injectable tolerated by the spinal disc, of both glucosamine and chondroitin sulfate (in a buffered injectable solution).

Molecule	value of the injection
N[C@H]1C(O)O[C@H](CO)[C@@H](O)[C@@H]1O (some centres unmarked) [glucosamine]	without value
chondroitin sulfate	without value
